US6670339B1, “Use of sulfated oligosaccharides in lowering blood triglyceride levels” (The Australian National University, priority 1997, dated 2003)

Assays:
[1] = target: T1, bovine milk lipoprotein lipase (Bos taurus, UniProt P11151); test: Inhibition of binding of biotinylated heparin/heparan sulfate to immobilised lipoprotein lipase
T1 construct: purified from bovine milk as previously described; from tissue; host or cells: bovine milk
T1 sequence (P11151 29-478): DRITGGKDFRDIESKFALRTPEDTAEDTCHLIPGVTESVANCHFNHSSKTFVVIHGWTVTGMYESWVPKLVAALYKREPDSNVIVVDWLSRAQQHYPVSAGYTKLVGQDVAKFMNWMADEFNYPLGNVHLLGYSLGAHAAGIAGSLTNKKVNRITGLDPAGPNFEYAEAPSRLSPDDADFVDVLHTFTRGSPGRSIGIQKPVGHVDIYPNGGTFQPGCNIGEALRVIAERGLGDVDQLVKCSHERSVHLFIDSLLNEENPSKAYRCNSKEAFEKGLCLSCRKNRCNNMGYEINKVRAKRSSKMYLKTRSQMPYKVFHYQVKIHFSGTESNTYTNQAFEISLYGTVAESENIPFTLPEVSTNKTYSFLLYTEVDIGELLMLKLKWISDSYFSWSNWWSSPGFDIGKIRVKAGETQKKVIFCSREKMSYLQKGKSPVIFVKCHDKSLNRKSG
Protocol: As a more rapid and direct means of measuring the ability of different sulfated oligosaccharides to release lipoprotein lipase from the endothelium, an in vitro assay for this effect was developed. The assay involved immobilising lipoprotein lipase (10 μg/ml in PBS, 15 hr, 4° C.), purified from bovine milk as previously described^12, in 96 well plastic microplates (50 μl/well). Non-specific binding sites were then blocked by the addition of 200 μl/well of PBS containing 1% (w/v) bovine serum albumin (BSA) for 2 hr at 4° C. Following three washes with 200 μl/well of PBS/0.05% Tween 20 (PBST), 50 μl/well of either biotinylated bovine lung heparin or biotinylated porcine mucosal heparan sulfate (Sigma), used at either 1 or 10 μg/ml, was added and incubated for 2 hr at 4° C. Following three washes with PBST, 50 μl/well of europeum-streptavidin (1 ng/ml in PBS/1% BSA) was added for 1 hr at 4° C., the plate again washed three times with PBST, enhancement solution (50 μl/well) added and bound europeum measured by time resolved fluorescence detection using a Delfia Research Fluorometer (Wallac, Turku, Finland). Inhibition assays measured the ability of different sulfated oligosacchandes to inhibit the binding of biotinylated heparan/heparin sulfate to the immobilised lipoprotein lipase enzyme.

[2] = tested on: blood triglyceride levels; test: Blood triglyceride levels in male and female Lewis rats after 7 days of twice daily s.c. injection; format: in vivo
Protocol: 2. […] Thus, on day 0 the rats were weighed and placed into three groups of the same sex, containing three rats each based on weight. On every subsequent morning their weights were recorded. Each morning beginning on day 1 at approximately 8.00 AM and each evening at approximately 8.00 PM the rats were injected in the following manner. The control groups received sterile normal saline solution 100 μl s.c. The first treatment groups of male and female rats received the sulfated mannopentaose phosphate, at a dose of 10 mg/kg s.c. in 100 μl of sterile saline solution (total daily dose 20 mg/kg). The second treatment groups of male and female rats received the sulfated mannopentaose phosphate at a dose of 50 mg/kg s.c. (total daily dose 100 mg/kg). This injection routine was repeated for a total of 7 days.
On morning of day 8 of the experiment, the rats were anaesthetised and blood was taken for triglyceride analysis. Triglyceride levels were determined using a commercially available assay kit (Sigma, Triglyceride—GPO-Tinder). […] Thus, blood triglyceride levels in the male control group averaged 1.7±0.21 mmol/L, in the […] male treatment group averaged 0.9±0.2 mmol/L and in the 100 mg/kg/day male treatment group averaged 0.3±0.0 mmol/L. Blood triglyceride levels in the female control group averaged 1.13±0.19 mmol/L, and in the 20 mg/kg/day female treatment group averaged 0.5±0.0 mmol/L and in the 100 mg/kg/day female treatment group averaged 0.17±0.03 mmol/L.

[3] = tested on: serum triglyceride levels; test: Serum triglyceride lowering by glycosaminoglycans and sulfated oligosaccharides in mice; format: in vivo, CBA/h female mice; conditions: 50 mg/kg s.c., 2 hours after injection
Protocol: FIG. 3. Ability of different glycosaminoglycans and sulfated oligosaccharides to lower serum triglyceride levels in CBA mice. Compounds were injected s.c. at a dose of 50 mg/kg, blood samples taken 2 hours later and assayed for triglyceride content. Each histogram is the mean±SEM (n=3) for each treatment.
Mice (CBA/h female mice 8-10 weeks old) were injected s.c. with a range of glycosaminoglycans and sulfated oligosaccharides at a dose of 50 mg/kg and 2 hours later mice were anaesthetised, blood was collected via cardiac puncture and allowed to clot and serum triglyceride levels measured using a commercially available kit (Sigma, Triglyceride—GPO-Trinder). […] The only other compound with some activity was suramin, a sulfonated compound which has previously been used as an angiogenesis and heparanase inhibitor.

sulfated mannopentaose phosphate [PI-88 (15 SO4/molecule)]
IC50, inhibition of binding of Biotinylated Heparin (1 μg/ml) to lipoprotein lipase ([1]; biotinylated bovine lung heparin 1 μg/ml): 1 µg/mL | IC50, inhibition of binding of Biotinylated Heparin (10 μg/ml) to lipoprotein lipase ([1]; biotinylated bovine lung heparin 10 μg/ml): 3 µg/mL | IC50, inhibition of binding of Biotinylated Heparan Sulfate (10 μg/ml) to lipoprotein lipase ([1]; biotinylated porcine mucosal heparan sulfate 10 μg/ml): 0.1 µg/mL | inhibitory activity on lipoprotein lipase binding to heparin/heparan sulfate, in words ([1]; summary of Table 1): potent inhibitors | blood triglyceride levels ([2]; female Lewis rats, 20 mg/kg/day s.c., blood on day 8, control 1.13±0.19): 0.5 ± 0.0 mmol/L | blood triglyceride levels ([2]; female Lewis rats, 100 mg/kg/day s.c., blood on day 8, control 1.13±0.19): 0.17 ± 0.03 mmol/L | blood triglyceride levels ([2]; male Lewis rats, 100 mg/kg/day s.c., blood on day 8, control 1.7±0.21): 0.3 ± 0.0 mmol/L | blood triglyceride levels ([2]; male Lewis rats, 'mg/kg/day' group (lower dose), s.c. twice daily, blood on day 8, control 1.7±0.21): 0.9 ± 0.2 mmol/L | effect on serum triglyceride levels, in words [3]: lowered serum triglyceride levels
